Test results: paper PMC8540349, “GOBP1 from the Variegated Cutworm Peridroma saucia (Hübner) (Lepidoptera: Noctuidae) Displays High Binding Affinities to the Behavioral Attractant (Z)-3-Hexenyl acetate” (Insects, 2021)
Entries after “also recorded” stand apart in the source; their conditions may differ.

Legend:
[1] = target: recombinant PsauGOBP1; test: Fluorescence competitive-binding assay with 1-NPN as probe; design: species or system Peridroma saucia; settings: mean ± SE; for IC50: 1-NPN displacement, Tris-HCl pH 7.4, 25 °C, read-out: IC50 (concentration of ligand halving the initial fluorescence value); for IC50 / Fluorescence (%) at Maximum Concentration: three experiments; for Fluorescence (%) at Maximum Concentration: remaining 1-NPN fluorescence; for Kd: calculated from IC50 with KD = [IC50]/1 + [1-NPN]/K1-NPN, read-out: KD (calculated dissociation constant)
Procedure: (§1) Emission fluorescence spectra were recorded on a Hitachi F-4500 at 25 °C, with a 1 cm light path quartz cuvette and 5 nm slits for both excitation and emission. The protein was dissolved in 50 mM Tris-HCl buffer, pH 7.4, and ligands were added as 1 mM methanol solutions. To measure the affinity of the fluorescent ligand N-phenyl-1-naphthylamine (1-NPN) to PsauGOBP1, a […] solution of the protein in 50 mM Tris-HCl, pH 7.4, was titrated with aliquots of 1 mM ligand in methanol to a final concentration of 16 µM. The probe was excited at 337 nm, and emission spectra were recorded between 380 and 450 nm. To analyze the binding affinity of other ligands to PsauGOBP1, a panel of 34 compounds including moth sex pheromones and host plant volatiles were used in the competitive-binding assay. A solution of the protein and 1-NPN, both at the concentration of […], was titrated with 1 mM methanol solutions of each competitor at a concentration of 12 (sex pheromones) or 16 µM (host plant volatiles).
The dissociation constant for 1-NPN and the stoichiometry of binding were obtained by processing the data with GraphPad Prism 6. Dissociation constants of the competitors were calculated from the corresponding IC50 values (concentrations of ligands that reduced the initial fluorescence value of 1-NPN by 50%), using the following equation: KD = [IC50]/1 + [1-NPN]/K1-NPN, where [1-NPN] is the free concentration of 1-NPN, and K1-NPN is the dissociation constant of the protein/1-NPN complex.

[2] = test system: P. saucia antennae; test: Electroantennogram (EAG) recording; design: species or system Peridroma saucia; settings: dose 100 µg, two- to three-day-old males and females, versus paraffin oil control, n = 20
Procedure: Individual synthetic nonanal, citral, farnesol, benzaldehyde, (Z)-3-hexenyl acetate, and (Z)-3-hexen-1-ol was diluted with paraffin oil to make each solution of 10 μg/μL. Each solution was added onto a filter paper (0.2 × 1 cm), and the final loading capacity doses of each solution were 100 μg. A 10 μL volume of paraffin oil was used as the control. Two- to three-day-old male and female P. saucia were used to obtain EAG recordings for the six volatiles. As described by Sun et al. with modification, the antennae were cut from the head and used for electro-signal recordings. After a few segments of the tip were cut off, the antenna was glued to the antenna holder (using conductive gel, Spectra 360, Parker Lab, NJ, USA), and the antenna holder was inserted into the EAG probe. The EAG signal was first amplified with a DC/AC preamplifier (Syntech UN-06), and was further processed with Autospike software (Syntech, Hilversum, the Netherlands).
The EAG data were analyzed using GraphPad Prism 6. The level of significance was set at p < 0.05. Unpaired Student’s t-tests were used to compare the EAG responses of male vs. female P. saucia. For comparison of responses to the six volatiles, the EAG data were first subjected to a one-way ANOVA; this was done separately for males and females. If the ANOVA was significant, means were compared with Tukey’s multiple comparison test.

[3] = test system: adult P. saucia; test: Y-tube olfactometer behavioral bioassay; type: in vivo, Peridroma saucia
Procedure: A Y-tube olfactometer was used to assess the behavioral responses of male and female P. saucia to (Z)-3-hexenyl acetate as described by Yan and Wang with modifications. In brief, the system consisted of a central tube (20 cm long, 6 cm diameter) and two lateral arms (35 cm long, 6 cm diameter). (Z)-3-hexenyl acetate was dissolved in paraffin oil to obtain 10 µg/µL solutions. Filter paper (1 × 2 cm) with 10 µL of sample or 10 µL of paraffin oil was placed in a 250 mL flask. During the test, the room temperature was kept at 24 ± 2 °C with 70% ± 5% humidity and 0.6 lux of red light. […] Moths that moved more than half way along one of the lateral arms and remained for at least 5 s were recorded as having made a choice for the odor offered through that arm. After five individuals were tested, the olfactometer was turned and the flasks were switched in order to avoid positional effects. Tested compounds and paraffin oil were renewed every 5–10 min. The olfactometer and the flask were cleaned with water, ethanol, and acetone at the end of each day.
Chi-squared analyses were performed to determine whether the numbers of P. saucia that made a choice differed between the two odor sources (a 50:50 probability was set for the percentage of moths selecting the control and the test sides. The moths that made no choice were not included in the statistical analysis).

[4] = target: recombinant PsauGOBP1; test: Affinity of fluorescent probe 1-NPN to PsauGOBP1 (direct titration); design: species or system Peridroma saucia; settings: direct titration 2–16 µM 1-NPN, excitation 337 nm; single binding site; means of three replicates; read-out: dissociation constant of 1-NPN
Procedure: as §1
The dissociation constant for 1-NPN and the stoichiometry of binding were obtained by processing the data with GraphPad Prism 6. […]

[5] = host plant volatiles, maximum concentration 16 (µM)
[6] = sex pheromones, maximum concentration 12 (µM)

Row | Compound | IC50 [1] [µM] | Fluorescence (%) at Maximum Concentration [1, 5] [%] | also measured
1 | CCC/C=C/C=O [(E)-2-hexenal] | > 20 | 64 ± 4 | –
2 | O=Cc1ccccc1 [Benzaldehyde] | 19.3 ± 1.1 | 62 ± 2 | Kd [1]: 9.4 ± 0.5 µM; EAG response of male and female antennae [2]: strong responses; also recorded: relatively strong
3 | C=CC(C)(O)CCC=C(C)C (stereo not drawn) [Linalool] | > 20 | 79 ± 2 | –
4 | CC(C)=CCC/C(C)=C/CC/C(C)=C/CO [Farnesol] | 13.1 ± 1.2 | 47 ± 4 | Kd [1]: 6.4 ± 0.6 µM; EAG response of male and female antennae [2]: weak EAG responses and weak
5 | CCCCCCCO [Heptanol] | > 20 | 65 ± 4 | –
6 | CC/C=C\CCOC(C)=O [(Z)-3-hexenyl acetate] | 8.2 ± 0.2 | 19 ± 2 | percentage of females showing chemotaxis to the compound ([3]; females, 10 µL of 10 µg/µL in paraffin oil versus paraffin oil, Y-tube): 68%; behavioral response (attraction) of both sexes ([3]; males and females, choice versus paraffin oil, chi-squared test): attractive; also recorded: attracted; also recorded: significant attraction; percentage of males showing chemotaxis to the compound ([3]; males, 10 µL of 10 µg/µL in paraffin oil versus paraffin oil, Y-tube): 64%; Kd [1]: 4 ± 0.1 µM; EAG response of male and female antennae [2]: strongest responses; also recorded: strongest EAG response; also recorded: strong responses
7 | C=C(C)[C@H]1CC=C(C)CC1 [D-limonene] | > 20 | 100 ± 5 | –
8 | CCCCCCCCCCCCO [Dodecanol] | > 20 | 75 ± 8 | –
9 | CCCCCC/C=C\CCCCCCCCO [Z9-16: OH] | > 20 | – | Fluorescence (%) at Maximum Concentration [1, 6]: 76 ± 1%
10 | CCCCCC/C=C\CCCCCCCC=O [Z9-16: Ald] | > 20 | – | Fluorescence (%) at Maximum Concentration [1, 6]: 82 ± 3%
11 | CC/C=C\CCCCCCCCOC(C)=O [Z9-12: Ac] | > 20 | – | Fluorescence (%) at Maximum Concentration [1, 6]: 72 ± 2%
12 | CCCC/C=C\CCCCCCCCCCO [Z11-16: OH] | > 20 | – | Fluorescence (%) at Maximum Concentration [1, 6]: 70 ± 5%
13 | CC/C=C\CC1=C(C)CCC1=O [(Z)-jasmone] | > 20 | 83 ± 5 | –
14 | CCC/C=C/COC(C)=O [(E)-2-hexenyl acetate] | > 20 | 77 ± 7 | –
15 | CCCCCCCCC=O [Nonanal] | 13.9 ± 0.6 | 50 ± 2 | Kd [1]: 6.8 ± 0.3 µM; EAG response of male and female antennae [2]: weak EAG responses and weak
16 | CC/C=C\CCO [(Z)-3-hexen-1-ol] | 17.4 ± 1.5 | 58 ± 3 | Kd [1]: 8.5 ± 0.6 µM; EAG response of male and female antennae [2]: strong responses; also recorded: relatively strong
17 | C=CC(=C)CC/C=C(\C)CCC=C(C)C [(E)-β-farnesene] | > 20 | 87 ± 4 | –
18 | C=C1CCC2CC1C2(C)C (stereo not drawn) [β-pinene] | > 20 | 100 ± 2 | –

Row | Compound | IC50 [1] [µM] | Fluorescence (%) at Maximum Concentration [1, 5] [%] | also measured
19 | CCCCCCCC=O [Octanal] | > 20 | 61 ± 6 | –
20 | CCCC/C=C\CCCCCCCCOC(C)=O [Z9-14: Ac] | > 20 | – | Fluorescence (%) at Maximum Concentration [1, 6]: 78 ± 2%
21 | CCCC/C=C\CCCCCCCCCC=O [Z11-16: Ald] | > 20 | – | Fluorescence (%) at Maximum Concentration [1, 6]: 89 ± 1%
22 | c1ccc(Nc2cccc3ccccc23)cc1 [1-NPN, N-phenyl-1-naphthylamine] | – | – | Kd [4]: 1900 nM
23 | C=CC(=C)CCC=C(C)C [β-myrcene] | > 20 | 94 ± 1 | –
24 | c1ccc2[nH]ccc2c1 [Indole] | > 20 | 70 ± 9 | –
25 | CCCC/C=C\CCCCCCCCCCOC(C)=O [Z11-16: Ac] | > 20 | – | Fluorescence (%) at Maximum Concentration [1, 6]: 70 ± 2%
26 | C=C1CC/C=C(\C)CC[C@@H]2[C@@H]1CC2(C)C [(E)-caryophyllene] | > 20 | 75 ± 1 | –
27 | CC/C=C\CC1C(=O)CCC1CC(=O)OC (stereo not drawn) [Methyl jasmonate] | > 20 | 80 ± 5 | –
28 | C=CC(C)=CCC=C(C)C [Ocimene] | > 20 | 74 ± 7 | –
29 | CCCC/C=C\CCCCCCOC(C)=O [Z7-12: Ac] | > 20 | – | Fluorescence (%) at Maximum Concentration [1, 6]: 74 ± 4%
30 | CC/C=C\C[C@H]1C(=O)CC[C@@H]1CC(=O)O [Jasmonic acid] | > 20 | 68 ± 3 | –
31 | COC(=O)c1ccccc1O [Methyl salicylate] | > 20 | 73 ± 3 | –
32 | CC(=O)OCCc1ccccc1 [Phenylethyl acetate] | > 20 | 64 ± 2 | –
33 | CCCCCCCCCC=O [Decanal] | > 20 | 85 ± 2 | –
34 | CC(C)=CCCC(C)=CC=O (mixture of isomers) [Citral] | 11.5 ± 1 | 40 ± 3 | Kd [1]: 5.6 ± 0.4 µM; EAG response of male and female antennae [2]: weak EAG responses and weak
35 | CCC/C=C/CO [(E)-2-hexen-1-ol] | > 20 | 67 ± 2 | –
